pIC50: −log10 of the molar value.
How the values were obtained:
[1] = biological target: T1, Amine oxidase [flavin-containing] A (Homo sapiens, UniProt P21397); test: Irreversible inhibition of human MAO-A expressed in baculovirus infected BT1 cells microsome fraction assessed as enzyme activity recovered at 10 times of IC50 concentration preincubated for 30 mins followed by dilution to 0.1 times of IC50 concentration by fluorescence spectrometry; design: scale not given: the % may be the effect or the level left
T1 sequence (P21397 whole entry): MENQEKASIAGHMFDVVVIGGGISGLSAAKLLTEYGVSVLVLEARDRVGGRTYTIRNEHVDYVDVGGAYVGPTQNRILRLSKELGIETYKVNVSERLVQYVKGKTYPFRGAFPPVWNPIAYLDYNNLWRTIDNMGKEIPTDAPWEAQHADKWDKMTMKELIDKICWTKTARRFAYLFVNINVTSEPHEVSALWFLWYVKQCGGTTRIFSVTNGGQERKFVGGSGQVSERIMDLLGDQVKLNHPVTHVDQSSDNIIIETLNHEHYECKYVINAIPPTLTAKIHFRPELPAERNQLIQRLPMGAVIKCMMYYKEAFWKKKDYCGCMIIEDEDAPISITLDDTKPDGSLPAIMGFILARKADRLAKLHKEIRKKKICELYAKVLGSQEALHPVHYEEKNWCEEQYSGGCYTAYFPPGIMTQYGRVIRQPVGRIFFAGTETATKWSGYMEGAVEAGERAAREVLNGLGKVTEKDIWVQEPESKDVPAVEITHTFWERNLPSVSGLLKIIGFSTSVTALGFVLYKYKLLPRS

[2] = biological target: T2, Amine oxidase [flavin-containing] B (Homo sapiens, UniProt P27338); test: Inhibition of human MAO-B expressed in baculovirus infected BT1 cells microsome fraction by fluorescence spectrometry
T2 sequence (P27338 whole entry): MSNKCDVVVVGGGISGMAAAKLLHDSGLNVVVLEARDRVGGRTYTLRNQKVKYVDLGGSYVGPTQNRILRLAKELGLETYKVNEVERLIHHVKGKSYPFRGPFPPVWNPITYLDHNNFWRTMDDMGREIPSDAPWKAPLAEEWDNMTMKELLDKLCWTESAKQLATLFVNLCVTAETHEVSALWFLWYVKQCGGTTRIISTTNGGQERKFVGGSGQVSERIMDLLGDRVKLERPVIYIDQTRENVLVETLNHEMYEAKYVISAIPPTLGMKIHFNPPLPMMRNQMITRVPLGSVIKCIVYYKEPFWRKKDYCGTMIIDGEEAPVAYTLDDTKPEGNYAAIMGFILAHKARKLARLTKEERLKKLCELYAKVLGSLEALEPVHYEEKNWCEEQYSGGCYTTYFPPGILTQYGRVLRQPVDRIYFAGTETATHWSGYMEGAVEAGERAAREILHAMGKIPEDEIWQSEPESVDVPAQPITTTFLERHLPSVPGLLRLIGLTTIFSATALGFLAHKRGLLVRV

[3] = biological target: T1, Amine oxidase [flavin-containing] A; test: Inhibition of human MAO-A expressed in baculovirus infected BT1 cells microsome fraction by fluorescence spectrometry
Homo sapiens = organism: Homo sapiens; test: Selectivity index, ratio of IC50 for human MAO-A to IC50 for human MAO-B
[4] = biological target: T2, Amine oxidase [flavin-containing] B; test: Reversible inhibition of human MAO-B expressed in baculovirus infected BT1 cells microsome fraction assessed as enzyme activity recovered at 10 times of IC50 concentration preincubated for 30 mins followed by dilution to 0.1 times of IC50 concentration by fluorescence spectrometry; design: scale not given: the % may be the effect or the level left
[5] = biological target: T2, Amine oxidase [flavin-containing] B; test: Reversible inhibition of human MAO-B expressed in baculovirus infected BT1 cells microsome fraction assessed as enzyme activity recovered at 100 times of IC50 concentration preincubated for 30 mins followed by dilution to IC50 concentration by fluorescence spectrometry; design: scale not given: the % may be the effect or the level left
[6] = biological target: T2, Amine oxidase [flavin-containing] B; test: Reversible inhibition of human MAO-B expressed in baculovirus infected BT1 cells microsome fraction assessed as residual enzyme activity at 4 times of IC50 concentration preincubated for 15 mins followed by dialysis for 24 hrs by fluorescence spectrometry relative to control
[7] = biological target: T2, Amine oxidase [flavin-containing] B; test: Inhibition of human MAO-B expressed in baculovirus infected BT1 cells microsome fraction assessed as residual enzyme activity at 4 times of IC50 concentration for 15 mins by fluorescence spectrometry relative to control; settings: 0.25 h
[8] = Cytotoxicity against human HeLa cells assessed as viable cells at 1 uM by MTT assay; type: cell-based; settings: read-out: Activity
[9] = Cytotoxicity against human HeLa cells assessed as viable cells at 10 uM by MTT assay; type: cell-based; settings: read-out: Activity
[10] = biological target: T1, Amine oxidase [flavin-containing] A; test: Reversible inhibition of human MAO-A expressed in baculovirus infected BT1 cells microsome fraction assessed as enzyme activity recovered at 10 times of IC50 concentration preincubated for 30 mins followed by dilution to 0.1 times of IC50 concentration by fluorescence spectrometry; design: scale not given: the % may be the effect or the level left
[11] = biological target: T1, Amine oxidase [flavin-containing] A; test: Reversible inhibition of human MAO-A expressed in baculovirus infected BT1 cells microsome fraction assessed as enzyme activity recovered at 100 times of IC50 concentration preincubated for 30 mins followed by dilution to IC50 concentration by fluorescence spectrometry; design: scale not given: the % may be the effect or the level left
[12] = Cytotoxicity against human HeLa cells by MTT assay; type: cell-based

C#CCN(C)[C@H](C)Cc1ccccc1 [SELEGILINE]
Activity [1]: 1.2%

Cc1ccc(C(=O)/C=C/c2ccc(F)c(Br)c2)s1
pIC50 [2]: 7.17 | pIC50 [3]: 4.79 | Ratio IC50 (Homo sapiens): 240 | Activity [4]: 26% | Activity [5]: 5% | Activity [6]: 83% | Activity [7]: 18% | viability at 1 µM [8]: 104% | viability at 10 µM [9]: 95.7%

O=C(/C=C/c1ccc(F)c(Br)c1)c1ccc(Cl)s1
pIC50 [2]: 6.94 | pIC50 [3]: 4.98 | Ratio IC50 (Homo sapiens): 91

O=C(/C=C/c1cccc(Cl)c1)c1ccc[nH]1
pIC50 [2]: 5.49 | pIC50 [3]: 3.84 | Ratio IC50 (Homo sapiens): 44

O=C(/C=C/c1ccc(C(F)(F)F)cc1)c1ccc[nH]1
pIC50 [2]: 6.08 | pIC50 [3]: 5.42 | Activity [10]: 90% | Activity [11]: 67% | Activity [4]: 85% | Activity [5]: 32% | viability at 1 µM [8]: 77.5% | viability at 10 µM [9]: 4.66% | CC50 [12]: 28.2 µM

COc1ccc(C(=O)/C=C/c2cccc(Cl)c2)cn1
pIC50 [2]: 6.48 | pIC50 [3]: 4.82 | Ratio IC50 (Homo sapiens): 46

O=C(/C=C/c1ccc(C(F)(F)F)cc1)c1ccc(Cl)s1
pIC50 [2]: 6.88 | pIC50 [3]: 5.12 | Ratio IC50 (Homo sapiens): 57

COc1ccc(C(=O)/C=C/c2ccc(Cl)s2)c(O)c1
pIC50 [2]: 6.73 | pIC50 [3]: 5.00 | Ratio IC50 (Homo sapiens): 54

O=C(/C=C/c1cccc(C(F)(F)F)c1)c1ccc[nH]1
pIC50 [2]: 5.85 | pIC50 [3]: 3.57 | Ratio IC50 (Homo sapiens): 191

C#CCN(C)Cc1ccccc1 [PARGYLINE]
Activity [1]: 1.2%

O=C(/C=C/c1ccc(F)c(Br)c1)c1ccc[nH]1
pIC50 [2]: 6.10 | pIC50 [3]: 5.05 | Ratio IC50 (Homo sapiens): 11 | Activity [4]: 81% | Activity [5]: 60% | viability at 1 µM [8]: 99.4% | viability at 10 µM [9]: 98%

Source: ChEMBL document CHEMBL3734746, “Monoamine oxidase inhibitory activities of heterocyclic chalcones” (Bioorg Med Chem Lett, 2015)
